Like-named read-outs stand apart in the source and are kept apart here.
Experiments:
Type in all cases: biochemical
[1] = biological target: ROCK (Homo sapiens, UniProt Q13464); experiment: ROCK inhibition assay, standard radioactive enzyme assay ("33P")
Experimental: Some compounds were screened for their ability to inhibit ROCK using a standard radioactive enzyme assay. Assays were carried out in a solution containing 100 mM HEPES (pH 7.5), 10 mM MgCl2, 25 mM NaCl, 2 mM DTT, and 1.5% DMSO. Final substrate concentrations in the assay were 13 μM [γ-^33P] ATP (25 mCi ^33P ATP/mmol ATP, Perkin Elmer, Cambridge, Mass./Sigma Chemicals, St Louis, Mo.) and 27 μM Myelin Basic Protein (MBP). Final enzyme concentration in the assay was 5 nM ROCK. Assays were carried out at room temperature. 1.5 μl of DMSO stock containing serial dilutions of the compound of the present invention (concentrations ranging from 10 μM to 2.6 nM) was placed in a 96 well plate. 50 μl of Solution 1 (100 mM HEPES (pH 7.5), 10 mM MgCl2, […]) was added to the plate. The reaction was initiated by addition of 50 μl of Solution 2 (100 mM HEPES (pH 7.5), 10 mM MgCl2, 4 mM DTT, […] and 10 nM ROCK). After 2 hours the reaction was quenched with 50 μL of 30% trichloroacetic acid (TCA, Fisher) containing 9 mM ATP. Transfer of 140 μL of the quenched reaction to a glass fiber filter plate (Corning, Cat. No. 3511) was followed by washing 3 times with 5% TCA. 50 μL of Optima Gold scintillation fluid (Perkin Elmer) was added and the plates were counted on a Top Count (Perkin Elmer). After removing mean background values for all of the data points the data was fit using Prism software to obtain a Ki(app).

[2] = biological target: T1, JAK3 (Homo sapiens, UniProt P52333); experiment: JAK3 inhibition assay (standard radioactive enzyme assay); conditions: average Ki if more than one value determined
T1 sequence (P52333 1-1124): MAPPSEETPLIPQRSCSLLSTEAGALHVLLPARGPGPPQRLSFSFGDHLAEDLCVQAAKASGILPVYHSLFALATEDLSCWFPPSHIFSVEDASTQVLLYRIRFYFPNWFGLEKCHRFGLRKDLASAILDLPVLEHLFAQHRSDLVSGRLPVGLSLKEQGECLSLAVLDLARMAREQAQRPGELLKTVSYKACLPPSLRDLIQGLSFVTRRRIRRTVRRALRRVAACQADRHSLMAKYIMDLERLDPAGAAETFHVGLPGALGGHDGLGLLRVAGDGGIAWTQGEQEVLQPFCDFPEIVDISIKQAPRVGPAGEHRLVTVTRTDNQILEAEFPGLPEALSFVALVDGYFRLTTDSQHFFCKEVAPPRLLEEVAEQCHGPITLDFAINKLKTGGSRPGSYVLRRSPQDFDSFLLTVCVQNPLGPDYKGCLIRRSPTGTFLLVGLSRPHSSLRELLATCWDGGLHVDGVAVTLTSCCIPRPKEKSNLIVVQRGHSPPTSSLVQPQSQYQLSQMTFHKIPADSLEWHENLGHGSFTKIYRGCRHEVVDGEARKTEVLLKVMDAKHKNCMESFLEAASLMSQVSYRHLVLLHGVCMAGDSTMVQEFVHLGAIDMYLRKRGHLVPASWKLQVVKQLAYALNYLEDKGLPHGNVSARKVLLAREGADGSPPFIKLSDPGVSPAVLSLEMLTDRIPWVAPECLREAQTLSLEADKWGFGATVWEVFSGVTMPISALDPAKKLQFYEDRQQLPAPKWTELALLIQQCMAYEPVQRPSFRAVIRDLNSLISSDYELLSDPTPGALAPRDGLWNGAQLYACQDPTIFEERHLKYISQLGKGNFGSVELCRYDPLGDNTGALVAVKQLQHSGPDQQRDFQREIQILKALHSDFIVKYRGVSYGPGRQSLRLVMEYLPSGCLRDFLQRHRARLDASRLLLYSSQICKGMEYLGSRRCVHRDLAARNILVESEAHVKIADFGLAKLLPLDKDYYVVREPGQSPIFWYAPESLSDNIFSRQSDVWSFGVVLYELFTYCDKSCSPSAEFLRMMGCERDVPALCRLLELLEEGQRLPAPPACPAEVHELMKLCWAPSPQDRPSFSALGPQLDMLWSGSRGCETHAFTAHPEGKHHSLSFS

[3] = biological target: JAK2 (Homo sapiens, UniProt O60674); experiment: JAK2 inhibition assay (radioactive enzyme assay, as for JAK3); conditions: average Ki if more than one value determined
How it was run: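 Both kinases: poly(Glu)4Tyr substrate in 100 mM HEPES pH 7.4, 10 mM MgCl2, 1 mM DTT. Run 20 min at 25° C, TCA stop, filter-bound ³³P counted, Ki(app) fitted after background subtraction. JAK3: final [γ-³³P]ATP 5 μM, enzyme added as 2 nM solution. JAK2: final poly(Glu)4Tyr 15 μM, final ATP 12 μM.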

[4] = biological target: T2, full length Aurora-A (AA 1-403) (Homo sapiens, UniProt O14965); experiment: Aurora-A inhibition assay, standard coupled enzyme system; conditions: average Ki if more than one value determined
T2 construct: full length Aurora-A (AA 1-403)
T2 sequence (O14965 1-403): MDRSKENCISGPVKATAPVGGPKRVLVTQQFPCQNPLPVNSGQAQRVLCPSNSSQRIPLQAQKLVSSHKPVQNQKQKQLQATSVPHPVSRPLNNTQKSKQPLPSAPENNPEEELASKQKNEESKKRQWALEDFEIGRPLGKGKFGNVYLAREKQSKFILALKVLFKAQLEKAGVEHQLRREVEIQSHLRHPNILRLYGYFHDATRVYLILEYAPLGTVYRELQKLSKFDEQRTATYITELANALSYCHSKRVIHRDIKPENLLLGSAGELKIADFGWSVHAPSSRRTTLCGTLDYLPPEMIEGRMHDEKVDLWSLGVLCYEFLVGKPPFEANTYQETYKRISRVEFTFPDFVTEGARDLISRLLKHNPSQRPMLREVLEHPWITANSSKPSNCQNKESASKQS

[5] = biological target: T3, ROCK I (AA 6-553) (Homo sapiens, UniProt Q13464); experiment: ROCK inhibition assay, standard coupled enzyme system ("Enzyme"); conditions: enzyme-linked assay
T3 construct: ROCK I (AA 6-553)
How it was run: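 ROCK I (AA 6-553) at 45 nM and 30 °C with 45 μM ATP and 200 μM peptide, in 100 mM HEPES pH 7.5, 10 mM MgCl2, 25 mM NaCl, 2 mM DTT, 1.5% DMSO. ADP output read by a PK/LDH coupled system: 2.5 mM PEP, 350 μM NADH, 30 μg/ml PK, 10 μg/ml LDH.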

Chain of ROCK (Q13464 whole entry): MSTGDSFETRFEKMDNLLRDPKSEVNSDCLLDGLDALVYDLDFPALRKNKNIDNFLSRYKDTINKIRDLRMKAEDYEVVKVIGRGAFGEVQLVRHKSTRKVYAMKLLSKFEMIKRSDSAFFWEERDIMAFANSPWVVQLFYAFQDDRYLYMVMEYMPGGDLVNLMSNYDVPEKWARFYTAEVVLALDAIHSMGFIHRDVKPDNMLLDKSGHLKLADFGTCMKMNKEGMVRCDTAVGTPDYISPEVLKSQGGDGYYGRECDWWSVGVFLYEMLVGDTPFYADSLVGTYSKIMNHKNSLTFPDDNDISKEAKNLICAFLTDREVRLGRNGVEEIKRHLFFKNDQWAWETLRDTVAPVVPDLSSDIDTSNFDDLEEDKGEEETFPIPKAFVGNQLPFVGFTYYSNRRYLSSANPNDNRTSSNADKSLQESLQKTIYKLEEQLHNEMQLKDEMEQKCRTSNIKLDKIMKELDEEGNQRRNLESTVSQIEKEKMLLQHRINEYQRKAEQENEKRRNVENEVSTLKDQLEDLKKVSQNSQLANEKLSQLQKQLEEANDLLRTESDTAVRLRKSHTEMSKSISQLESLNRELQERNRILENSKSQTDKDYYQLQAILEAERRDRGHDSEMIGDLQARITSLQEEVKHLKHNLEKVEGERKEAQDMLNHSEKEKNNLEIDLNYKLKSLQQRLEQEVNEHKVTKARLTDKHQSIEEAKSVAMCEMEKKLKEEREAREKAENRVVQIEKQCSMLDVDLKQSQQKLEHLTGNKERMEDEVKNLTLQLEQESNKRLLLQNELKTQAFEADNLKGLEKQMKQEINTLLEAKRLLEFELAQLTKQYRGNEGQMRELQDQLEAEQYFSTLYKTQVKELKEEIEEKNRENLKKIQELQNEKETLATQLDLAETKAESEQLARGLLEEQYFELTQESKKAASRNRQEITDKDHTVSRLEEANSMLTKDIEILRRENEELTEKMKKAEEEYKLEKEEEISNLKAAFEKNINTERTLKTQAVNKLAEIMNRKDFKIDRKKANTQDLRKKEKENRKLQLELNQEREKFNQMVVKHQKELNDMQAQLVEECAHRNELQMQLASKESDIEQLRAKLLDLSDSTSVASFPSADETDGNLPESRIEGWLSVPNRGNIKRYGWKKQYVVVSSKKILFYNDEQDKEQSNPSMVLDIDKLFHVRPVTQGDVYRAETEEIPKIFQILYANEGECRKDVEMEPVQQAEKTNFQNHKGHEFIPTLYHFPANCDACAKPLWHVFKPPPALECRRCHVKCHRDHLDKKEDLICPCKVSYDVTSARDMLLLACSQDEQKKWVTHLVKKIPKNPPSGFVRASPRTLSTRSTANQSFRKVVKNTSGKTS
Chain of JAK2 (O60674 whole entry, species assumed): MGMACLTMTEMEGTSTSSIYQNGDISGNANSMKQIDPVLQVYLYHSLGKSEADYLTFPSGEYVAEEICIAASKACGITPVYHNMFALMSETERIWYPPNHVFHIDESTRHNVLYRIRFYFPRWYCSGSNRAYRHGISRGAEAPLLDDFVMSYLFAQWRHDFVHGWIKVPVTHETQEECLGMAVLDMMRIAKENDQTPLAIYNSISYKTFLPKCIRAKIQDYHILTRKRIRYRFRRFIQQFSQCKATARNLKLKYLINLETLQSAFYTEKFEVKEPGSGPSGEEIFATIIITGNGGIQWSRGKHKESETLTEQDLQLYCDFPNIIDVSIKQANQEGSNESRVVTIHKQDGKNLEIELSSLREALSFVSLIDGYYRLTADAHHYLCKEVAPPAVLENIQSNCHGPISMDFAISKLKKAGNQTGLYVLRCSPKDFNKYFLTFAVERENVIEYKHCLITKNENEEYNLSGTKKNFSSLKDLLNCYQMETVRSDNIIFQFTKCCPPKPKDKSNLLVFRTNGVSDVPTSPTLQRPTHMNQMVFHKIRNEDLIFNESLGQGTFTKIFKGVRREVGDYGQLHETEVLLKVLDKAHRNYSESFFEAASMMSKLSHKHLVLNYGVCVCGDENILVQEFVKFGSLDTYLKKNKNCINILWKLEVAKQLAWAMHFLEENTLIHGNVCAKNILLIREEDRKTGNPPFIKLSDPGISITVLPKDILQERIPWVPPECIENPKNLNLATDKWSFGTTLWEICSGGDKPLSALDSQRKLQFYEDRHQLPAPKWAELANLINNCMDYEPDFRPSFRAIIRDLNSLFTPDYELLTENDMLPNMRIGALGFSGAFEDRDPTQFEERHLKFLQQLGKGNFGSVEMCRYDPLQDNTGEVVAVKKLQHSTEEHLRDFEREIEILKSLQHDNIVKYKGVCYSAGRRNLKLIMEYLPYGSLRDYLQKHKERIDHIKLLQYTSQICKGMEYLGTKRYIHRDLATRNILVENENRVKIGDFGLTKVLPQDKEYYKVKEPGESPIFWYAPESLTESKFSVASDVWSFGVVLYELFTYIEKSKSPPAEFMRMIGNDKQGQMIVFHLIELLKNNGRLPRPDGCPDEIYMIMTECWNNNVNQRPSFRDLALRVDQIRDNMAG
T3 sequence (Q13464 6-553, species assumed): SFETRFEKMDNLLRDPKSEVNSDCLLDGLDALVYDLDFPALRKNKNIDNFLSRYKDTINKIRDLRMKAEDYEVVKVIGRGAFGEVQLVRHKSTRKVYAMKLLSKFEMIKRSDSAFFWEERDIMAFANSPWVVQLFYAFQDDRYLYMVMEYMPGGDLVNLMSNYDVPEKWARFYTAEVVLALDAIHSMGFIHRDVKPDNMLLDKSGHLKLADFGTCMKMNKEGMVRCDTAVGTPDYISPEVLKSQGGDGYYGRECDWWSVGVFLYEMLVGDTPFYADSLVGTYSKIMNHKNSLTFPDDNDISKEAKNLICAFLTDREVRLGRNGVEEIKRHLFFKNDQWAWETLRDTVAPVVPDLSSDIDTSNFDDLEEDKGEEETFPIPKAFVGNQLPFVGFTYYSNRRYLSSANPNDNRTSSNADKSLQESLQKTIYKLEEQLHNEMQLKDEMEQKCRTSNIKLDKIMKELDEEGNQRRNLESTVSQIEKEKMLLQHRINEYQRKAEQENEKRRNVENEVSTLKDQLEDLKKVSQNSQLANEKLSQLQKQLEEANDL

Ki [1]	Ki [2]	Ki [3]	Ki [4]	Ki ([1]; Ki(app))	Ki ([2]; Ki(app))	Ki ([3]; Ki(app))	Ki [5]	SMILES
500 to 5000 nM	< 500 nM	< 500 nM						CC(=O)N1CCCN(c2nccc(-c3c[nH]c4ncc(C(N)=O)cc34)n2)CC1 [Compound 1]
500 to 5000 nM	< 500 nM	< 500 nM						c1ccc(CNc2nccc(-c3c[nH]c4ncc(-c5cccnc5)cc34)n2)cc1 [Compound 2]
< 500 nM	< 500 nM	< 500 nM						CC(=O)N1CCCN(c2nccc(-c3c[nH]c4ncc(-c5cccnc5)cc34)n2)CC1 [Compound 3]
< 500 nM	< 500 nM	< 500 nM	< 500 nM					Clc1cnc2[nH]cc(-c3ccnc(NCc4ccccc4)n3)c2c1 [Compound 4]
500 to 5000 nM	< 500 nM	< 500 nM						CC(=O)N1CCCN(c2nccc(-c3c[nH]c4ncc(Cl)cc34)n2)CC1 [Compound 5]
< 500 nM	< 500 nM	< 500 nM						c1cncc(CNc2nccc(-c3c[nH]c4ncccc34)n2)c1 [Compound 6]
500 to 5000 nM	< 500 nM	< 500 nM	500 to 5000 nM	500 to 5000 nM	500 to 5000 nM	500 to 5000 nM		Clc1cnc2[nH]cc(-c3ccnc(N4CCCCCC4)n3)c2c1 [Compound 9]
< 500 nM	< 500 nM	< 500 nM	< 500 nM					CC(C)C[C@@H](CO)Nc1nccc(-c2c[nH]c3ncc(Cl)cc23)n1 [Compound 10]
				< 500 nM	< 500 nM	< 500 nM		c1ccc(CNc2ccnc(-c3c[nH]c4ncccc34)n2)cc1 [Compound 11, Benzyl-[2-(1H-pyrrolo[2,3-b]pyridin-3-yl)-pyrimidin-4-yl]amine]
< 500 nM	< 500 nM	< 500 nM						COc1cnc2[nH]cc(-c3cc(NCc4ccccc4)ncn3)c2c1 [Compound 12]
500 to 5000 nM	< 500 nM	< 500 nM						COc1cnc2[nH]cc(-c3cc(N[C@H](C)c4ccccc4)ncn3)c2c1 [Compound 13]
< 500 nM	< 500 nM	< 500 nM	500 to 5000 nM					COc1cnc2[nH]cc(-c3cc(N[C@@H](C)c4ccccc4)ncn3)c2c1 [Compound 14]
500 to 5000 nM	500 to 5000 nM	500 to 5000 nM						C[C@@H]1CCN(Cc2ccccc2)CC1N(C)c1cc(-c2c[nH]c3ncccc23)ncn1 (stereo partly drawn) [Compound 15]
< 500 nM	< 500 nM	< 500 nM						Fc1cccc(CNc2cc(-c3c[nH]c4ncccc34)ncn2)c1 [Compound 16]
< 500 nM	500 to 5000 nM	500 to 5000 nM						C[C@@H]1CCNCC1N(C)c1cc(-c2c[nH]c3ncccc23)ncn1 (stereo partly drawn) [Compound 17]
< 500 nM	< 500 nM	< 500 nM						Clc1cccc(CNc2cc(-c3c[nH]c4ncccc34)ncn2)c1 [Compound 21]
< 500 nM	< 500 nM	< 500 nM						FC(F)(F)c1cccc(CNc2cc(-c3c[nH]c4ncccc34)ncn2)c1 [Compound 22]

Ki [1]	Ki [2]	Ki [3]	Ki [4]	Ki ([1]; Ki(app))	Ki ([2]; Ki(app))	Ki ([3]; Ki(app))	Ki [5]	SMILES
< 500 nM	500 to 5000 nM	500 to 5000 nM						c1ccc(-c2cccc(CNc3cc(-c4c[nH]c5ncccc45)ncn3)c2)cc1 [Compound 23]
< 500 nM	< 500 nM	< 500 nM						CN(Cc1ccccc1)c1cc(-c2c[nH]c3ncccc23)ncn1 [Compound 26]
< 500 nM	< 500 nM	< 500 nM						Fc1ccc(CNc2cc(-c3c[nH]c4ncccc34)ncn2)cc1 [Compound 27]
< 500 nM	< 500 nM	< 500 nM						Nc1cccc(CNc2cc(-c3c[nH]c4ncccc34)ncn2)c1 [Compound 28]
< 500 nM	< 500 nM	< 500 nM						Fc1cc(F)cc(CNc2cc(-c3c[nH]c4ncccc34)ncn2)c1 [Compound 29]
			< 500 nM	< 500 nM				COc1cc(-c2c[nH]c3ncccc23)ccc1C(N)=O [Compound 31, 2-Methoxy-4-(1H-pyrrolo[2,3-b]pyridin-3-yl)-benzamide]
< 500 nM	< 500 nM	< 500 nM						CCS(=O)(=O)N1CCCN(c2nccc(-c3c[nH]c4ncc(OC)cc34)n2)CC1 [Compound 31]
500 to 5000 nM	< 500 nM	< 500 nM					< 500 nM	CCCOC(=O)N1CCCN(c2nccc(-c3c[nH]c4ncc(OC)cc34)n2)CC1 [Compound 34]
< 500 nM	< 500 nM	< 500 nM					500 to 5000 nM	CC(=O)N1[C@H](C)CN(c2cccc(-c3c[nH]c4ncc(NC(=O)OC(C)(C)C)cc34)n2)C[C@@H]1C [Compound 37]
500 to 5000 nM			< 500 nM					Brc1cnc2[nH]c(-c3ccccc3)c(-c3ccccc3)c2c1 [Compound 211]
500 to 5000 nM			< 500 nM					c1ccc(-c2cnc3[nH]cc(-c4ccccc4)c3c2)cc1 [Compound 213]
500 to 5000 nM			500 to 5000 nM					COc1cccc(-c2c[nH]c3ncc(-c4ccccc4)cc23)c1 [Compound 214]
500 to 5000 nM			500 to 5000 nM					CCOc1cccc(-c2c[nH]c3ncc(-c4ccccc4)cc23)c1 [Compound 215]
500 to 5000 nM			< 500 nM					COc1ccc(OC)c(-c2c[nH]c3ncc(-c4ccccc4)cc23)c1 [Compound 216]
500 to 5000 nM			< 500 nM				500 to 5000 nM	Brc1cnc2[nH]c(-c3ccccc3)c(-c3ccc(N4CCOCC4)cc3)c2c1 [Compound 217]
< 500 nM			< 500 nM				< 500 nM	CS(=O)(=O)c1cccc(-c2c[nH]c3ncc(-c4ccccc4)cc23)c1 [Compound 218]
500 to 5000 nM			< 500 nM				500 to 5000 nM	CN(C)C(=O)c1ccc(-c2c[nH]c3ncc(-c4ccccc4)cc23)cc1 [Compound 219]

— patent publication US8501446B2 (Vertex Pharmaceuticals Incorporated, priority 2004, dated 2013)
